Experimental data reported in patent US20070178147A1, “Liposomal compositions” (priority 2005, published 2007).
Values after ≈ are worked out from the molar mass of the structure shown.

How the values were obtained:
[1] = Precipitation of Compound 1 from cosolvent systems upon addition of water; format: physicochemical; conditions: cosolvent systems of PEG 400 or 300, Benzyl Alcohol, Ethanol and low amounts of bile salts; water at 30% levels in final mixture
Source text: In additional combinations as cosolvent systems, of PEG 400 or 300, Benzyl Alcohol, Ethanol and low amounts of bile salts (e.g. Sodium Deoxytauro Cholate), Compound 1 precipitated upon an addition of water at 30% levels in the final aqueous-organic mixture.

[2] = Solubility of Compound 1 in pharmaceutical solvents at 25° C.; format: physicochemical
Source text: Compound 1 is a nonpeptide vasopressin receptor antagonist and is insoluble in aqueous solutions throughout the physiological pH range (1.2 to 7.5).

Behaviour upon addition of water [1]: precipitated | solubility ([2]; aqueous buffer, 10 mM Phosphate buffer (pH 7.4), 25° C.): < 0.001 µg/mL | solubility ([2]; aqueous with cosolvent or surfactant or cyclodextrin, Aqueous solution of Poloxamer 188 (10, 20 and 30%), 25° C.): < 0.001 µg/mL | solubility ([2]; aqueous with cosolvent or surfactant or cyclodextrin, Cremophor EL, 25° C.): 5100 µg/mL (≈ 10800 µM) | solubility ([2]; aqueous with cosolvent or surfactant or cyclodextrin, Gelucire 48109, 25° C.): 2260 µg/mL (≈ 4770 µM) | solubility ([2]; aqueous with cosolvent or surfactant or cyclodextrin, Labrasol, 25° C.): 7500 µg/mL (≈ 15800 µM) | solubility ([2]; aqueous with cosolvent or surfactant or cyclodextrin, PEG 300/Alcohol/Water (40:30:30), 25° C.): 280 µg/mL (≈ 591 µM) | solubility ([2]; aqueous with cosolvent or surfactant or cyclodextrin, Sodium Lauryl sulfate, 25° C.): 20 µg/mL (≈ 42.2 µM) | solubility ([2]; fassgf or other biorelevant, SIF without enzyme, 25° C.): < 0.001 µg/mL | solubility ([2]; oil or lipid, Ethyl oleate, 25° C.): 200 µg/mL (≈ 422 µM) | solubility ([2]; oil or lipid, Miglyol 812, 25° C.): 290 µg/mL (≈ 612 µM) | solubility ([2]; oil or lipid, Neobee M5, 25° C.): 520 µg/mL (≈ 1100 µM) | solubility ([2]; oil or lipid, Oleic acid, 25° C.): 40 µg/mL (≈ 84.4 µM) | solubility ([2]; oil or lipid, Olive oil, 25° C.): 30 µg/mL (≈ 63.3 µM) | solubility ([2]; oil or lipid, Propylene glycol Laurate, 25° C.): 680 µg/mL (≈ 1430 µM) | solubility ([2]; oil or lipid, Safflower oil, 25° C.): < 0.001 µg/mL | solubility ([2]; oil or lipid, Soybean oil, 25° C.): < 0.001 µg/mL | solubility ([2]; organic solvent or mixture, Benzyl Alcohol, 25° C.): 21000 µg/mL (≈ 44400 µM) | solubility ([2]; organic solvent or mixture, Benzyl Benzoate, 25° C.): 3410 µg/mL (≈ 7200 µM) | solubility ([2]; organic solvent or mixture, Ethanol, 25° C.): 1890 µg/mL (≈ 3990 µM) | solubility ([2]; organic solvent or mixture, PEG 300, 25° C.): 14900 µg/mL (≈ 31400 µM) | solubility ([2]; organic solvent or mixture, PEG 300/Alcohol (50:50), 25° C.): 8750 µg/mL (≈ 18500 µM) | solubility ([2]; organic solvent or mixture, PEG 400, 25° C.): 26300 µg/mL (≈ 55500 µM) | solubility ([2]; organic solvent or mixture, PEG 400/Benzyl Alcohol (80:20), 25° C.): 14600 µg/mL (≈ 30800 µM) | solubility ([2]; organic solvent or mixture, Triacetin, 25° C.): 2700 µg/mL (≈ 5700 µM) | Solubility in partially aqueous solvents ([2]; partially aqueous solvents of pharmaceutically acceptable hydrophilic and lipophilic solvents): limited solubility | solubility ([2]; plasma or biological fluid, Human Serum Albumin, 25° C.): 16 µg/mL (≈ 33.8 µM) | solubility ([2]; propylene glycol (printed: Propylyne glycol), organic solvent or mixture, Propylyne glycol, 25° C.): 600 µg/mL (≈ 1270 µM) | solubility ([2]; simulated gastric fluid, SGF without enzyme, 25° C.): < 0.001 µg/mL | Solubility in aqueous solutions ([2]; throughout the physiological pH range (1.2 to 7.5)): insoluble
Structure (SMILES): Cc1ccc(F)cc1C(=O)Nc1ccc(C(=O)N2Cc3cccn3Cc3ccccc32)c(Cl)c1 [Compound 1, 5-fluoro-2-methyl-N-[4-(5H-pyrrolo[2,1-c][1,4]benzodiazepin-10(11H)-ylcarbonyl)-3-chlorophenyl]benzamide]
